The values that follow are results of earlier work, collected in PMC3172588 (Organic & Biomolecular Chemistry, 2010).

In data set [1] the test system is sea urchin cADPR receptor (sea urchin egg homogenate, SUH).
Data set [2] concerns T cell-cADPR receptor (permeabilised Jurkat T-cells, JTC). The note with it: class in words; ref [8],[17],[23],[36].

Regarding 3-deaza cADPR, the “times more potent than cADPR in SUH” value in data set [1] (agonist, ref [20]) was 70 times.
A word on the EC50: it is the concentration needed to bring the measured effect to its halfway point. As for 8-Cl-cADPcR [8-Cl-cADPcR (5)], in data set [1] (read-out: Activity in SUH: agonist EC50, Table 3, compounds synthesized by Shuto's group, ref [15],[38],[51],[52]), the EC50 is 19 µM.
As to `O=c1c2nc(Br)n3c2ncn1[C@@H]1O[C@H](COP(=O)(O)OP(=O)(O)OC[C@H]2O[C@@H]3[C@H](O)[C@@H]2O)[C@@H](O)[C@H]1O` [8-Bromo cIDPR], the “Activity in T cells / JTC (running text, literature)” value in data set [2] is listed as “agonist activity”.
On to `[N-]=[N+]=Nc1nc2c(=N)n3cnc2n1C1OC(COP(=O)(O)OP(=O)(O)OCC2OC3C(O)C2O)C(O)C1O` (stereo not shown) [8-azido-cADPR], for which, in data set [1] (class in words, ref [8],[13],[17],[23],[32],[36],[38]), the “Activity in SUH (running text, literature)” value is given as “antagonists”.
